Data: ChEMBL document CHEMBL1123587, “Nucleosides. 139. Synthesis and anticytomegalovirus and antiherpes simplex virus activity of 5'-modified analogues of 2'-fluoroarabinosylpyrimidine nucleosides” (1987)

Experiments:
Assay type in all cases: functional
Human alphaherpesvirus 2 [1] = assay: Effective concentration required to inhibit replication of strain G of HSV-2 by 50%; conditions: read-out: ED50 (the source's name)
Vero = assay: Compound was evaluated for cytotoxicity in rapidly dividing Vero cells; conditions: Chlorocebus sabaeus, read-out: ID50 (the source's name)
Human alphaherpesvirus 1 [2] = assay: Effective concentration required to inhibit replication of strain F of HSV-1 by 50%; conditions: read-out: ED50 (the source's name)
Human alphaherpesvirus 1 [3] = assay: Effective concentration required to inhibit replication of strain F of HSV-1 by 90%
Human alphaherpesvirus 2 [4] = assay: Effective concentration required to inhibit replication of strain G of HSV-2 by 90%

| EC50 (Human alphaherpesvirus 2 [1]) | EC50 (Human alphaherpesvirus 1 [2]) | Structure (SMILES) | IC50 (Vero) | ED90 (Human alphaherpesvirus 1 [3]) | ED90 (Human alphaherpesvirus 2 [4]) |
| --- | --- | --- | --- | --- | --- |
| > 200 µM | 108 µM | NCC1O[C@@H](n2cc(I)c(=O)[nH]c2=O)[C@H](F)[C@H]1O (stereo not given in full) | > 200 µM | >200 µM | >200 µM |
| > 200 µM | > 200 µM | Cc1cn([C@@H]2OC(CS)[C@H](O)[C@H]2F)c(=O)[nH]c1=O (stereo not given in full) | 314 µM | >200 µM | >200 µM |
| 17.1 µM | 13.3 µM | CC1O[C@@H](n2ccc(N)nc2=O)[C@H](F)[C@H]1O (stereo not given in full) | 225 µM | 35.9 µM | 45.5 µM |
| 0.03 µM | 0.023 µM | Nc1nc(=O)n([C@@H]2O[C@H](CO)C(O)C2F)cc1I (single isomer, unassigned) [FIACITABINE] | 21.7 µM | 0.048 µM | 0.08 µM |

Further lines, the compound ahead of its results:

| Structure (SMILES) | EC50 (Human alphaherpesvirus 2 [1]) | EC50 (Human alphaherpesvirus 1 [2]) | IC50 (Vero) | ED90 (Human alphaherpesvirus 1 [3]) | ED90 (Human alphaherpesvirus 2 [4]) |
| --- | --- | --- | --- | --- | --- |
| CC1O[C@@H](n2cc(I)c(N)nc2=O)[C@H](F)[C@H]1O (stereo not given in full) | > 400 µM | > 400 µM | > 400 µM | >400 µM | >400 µM |
| Nc1nc(=O)n([C@@H]2OC(CS)[C@H](O)[C@H]2F)cc1I (stereo not given in full) | > 200 µM | 216 µM | 337 µM | 444 µM | >200 µM |
| Cc1cn([C@@H]2OC(C)[C@H](O)[C@H]2F)c(=O)[nH]c1=O (stereo not given in full) | 173 µM | 31.1 µM | 214 µM | 298 µM | 493 µM |
| NCC1O[C@@H](n2cc(I)c(N)nc2=O)[C@H](F)[C@H]1O (stereo not given in full) | > 400 µM | 202 µM | > 400 µM | 480 µM | >400 µM |
| CC1O[C@@H](n2cc(I)c(=O)[nH]c2=O)[C@H](F)[C@H]1O (stereo not given in full) | 135 µM | 220 µM | > 400 µM | 384 µM | 290 µM |
| CC1O[C@@H](n2ccc(=O)[nH]c2=O)[C@H](F)[C@H]1O (stereo not given in full) | 224 µM | 346 µM | 333 µM | 538 µM | 379 µM |
| Cc1cn([C@@H]2OC(CN)[C@H](O)[C@H]2F)c(=O)[nH]c1=O (stereo not given in full) | 5.6 µM | 0.78 µM | 6.7 µM | 3 µM | 14 µM |
| Cc1cn([C@@H]2O[C@H](CO)C(O)C2F)c(=O)[nH]c1=O (single isomer, unassigned) [5-METHYL-2'-FLUOROARAURACIL] | 0.023 µM | 0.018 µM | 2.8 µM | 0.047 µM | 0.09 µM |
| O=c1[nH]c(=O)n([C@@H]2O[C@H](CO)C(O)C2F)cc1I (single isomer, unassigned) [FIALURIDINE] | 0.01 µM | 0.012 µM | 10.3 µM | 0.041 µM | 0.045 µM |
